The compounds below were run against Escherichia coli DNA gyrase A/B tetramer (Escherichia coli, UniProt P0AES4+P0AES6) (assay: DNA gyrase supercoiling activity fluorescence polarisation assay).
Sequence of Escherichia coli DNA gyrase A/B tetramer (P0AES4 whole entry, one chain of several): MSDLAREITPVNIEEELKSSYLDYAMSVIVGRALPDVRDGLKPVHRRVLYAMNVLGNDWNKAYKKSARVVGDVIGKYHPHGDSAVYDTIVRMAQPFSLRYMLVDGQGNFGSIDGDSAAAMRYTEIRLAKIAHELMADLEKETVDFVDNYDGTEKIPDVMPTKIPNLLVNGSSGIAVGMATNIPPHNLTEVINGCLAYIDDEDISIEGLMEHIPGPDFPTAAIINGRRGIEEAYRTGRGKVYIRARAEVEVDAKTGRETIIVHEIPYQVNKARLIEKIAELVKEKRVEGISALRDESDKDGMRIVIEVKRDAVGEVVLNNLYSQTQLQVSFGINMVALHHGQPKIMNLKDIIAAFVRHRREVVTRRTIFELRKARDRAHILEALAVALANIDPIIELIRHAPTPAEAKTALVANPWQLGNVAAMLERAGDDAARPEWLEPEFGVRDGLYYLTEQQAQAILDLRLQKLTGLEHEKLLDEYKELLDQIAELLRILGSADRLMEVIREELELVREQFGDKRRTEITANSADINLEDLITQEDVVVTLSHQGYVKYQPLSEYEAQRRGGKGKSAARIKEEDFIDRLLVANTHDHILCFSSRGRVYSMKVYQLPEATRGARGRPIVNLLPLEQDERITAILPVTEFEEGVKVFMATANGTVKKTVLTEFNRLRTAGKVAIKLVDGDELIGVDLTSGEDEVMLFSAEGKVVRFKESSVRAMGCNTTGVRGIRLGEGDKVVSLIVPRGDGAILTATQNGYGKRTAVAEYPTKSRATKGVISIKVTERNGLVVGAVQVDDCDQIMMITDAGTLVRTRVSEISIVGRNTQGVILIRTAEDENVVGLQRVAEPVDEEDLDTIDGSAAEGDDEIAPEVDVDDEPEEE
Assay type: biochemical
Experimental: The supercoiling reactions may be quenched by the addition of 10 microliters/well of 40 nM oligodeoxynucleotide probe in 3× triplex-forming buffer consisting of 150 mM NaCl, and 150 mM sodium acetate at pH 3.5. The oligodeoxynucleotide probe may be 5′-BODIPY-FL-labeled […]. After 60 minutes, the fluorescence anisotropy of the BODIPY-FL may be measured in a Tecan Ultra plate reader, using 485 nm excitation and 535 nm emission filters equipped with polarizers. The IC50 may be determined by nonliner regression using two control reactions. The first contains no test compound but 0.8% DMSO (100% activity) while the second control reaction contains 5 uM Ciprofloxacin and 0.8% DMSO (0% activity).
`Cc1ccc(-c2cnc3c(c2)CC2(C(=O)NC(=O)NC2=O)[C@H]2[C@H](C)O[C@H](C)CN32)s1` (relative stereo) [Example 29, (6aS,7S,9R)-rel-7,9-Dimethyl-3-(5-methylthiophen-2-yl)-6a,7,9,10-tetrahydro-2′H,5H-spiro[1,4oxazino[4,3-a][1,8]naphthyridine-6,5′-pyrimidine]-2′,4′,6′(1′H,3′H)-trione] gave an IC50 of 9 µM.
`Cc1ccsc1-c1cnc2c(c1)CC1(C(=O)NC(=O)NC1=O)[C@H]1[C@H](C)O[C@H](C)CN21` (relative stereo) [Example 30, (6aS,7S,9R)-rel-7,9-Dimethyl-3-(3-methylthiophen-2-yl)-6a,7,9,10-tetrahydro-2′H,5H-spiro[1,4-oxazino[4,3-a][1,8]naphthyridine-6,5′-pyrimidine]-2′,4′,6′(1′H,3′H)-trione] gave an IC50 of 12 µM.
Work on `C[C@@H]1CN2c3ncc(-c4ccc(-c5nnn[nH]5)s4)cc3CC3(C(=O)NC(=O)NC3=O)[C@H]2[C@H](C)O1` (relative stereo) [Example 31, (6aS,7S,9R)-rel-7,9-Dimethyl-3-[5-(1H-tetrazol-5-yl)thiophen-2-yl]-6a,7,9,10-tetrahydro-2′H,5H-spiro[1,4-oxazino[4,3-a][1,8]naphthyridine-6,5′-pyrimidine]-2′,4′,6′(1′H,3′H)-trione] yielded an IC50 of 6 µM.
With `C[C@@H]1CN2c3ncc(-c4cn(C)cn4)cc3CC3(C(=O)NC(=O)NC3=O)[C@H]2[C@H](C)O1` (relative stereo) [Example 33, (6aS,7S,9R)-rel-7,9-Dimethyl-3-(1-methyl-1H-imidazol-4-yl)-6a,7,9,10-tetrahydro-2′H,5H-spiro[1,4-oxazino[4,3-a][1,8]naphthyridine-6,5′-pyrimidine]-2′,4′,6′(1′H,3′H)-trione] the IC50 was 48 µM.
`C[C@@H]1CN2c3ncc(-c4ncc[nH]4)cc3CC3(C(=O)NC(=O)NC3=O)[C@H]2[C@H](C)O1` (relative stereo) [Example 35, (6aS,7S,9R)-rel-3-(1H-Imidazol-2-yl)-7,9-dimethyl-6a,7,9,10-tetrahydro-2′H,5H-spiro[1,4-oxazino[4,3-a][1,8]naphthyridine-6,5′-pyrimidine]-2′,4′,6′(1′H,3′H)-trione] was tested, and the IC50 was greater than 40 µM.
Compound `C[C@@H]1CN2c3ncc(-c4ccc(-c5ccn[nH]5)s4)cc3CC3(C(=O)NC(=O)NC3=O)[C@H]2[C@H](C)O1` (relative stereo) [Example 36, (6aS,7S,9R)-rel-7,9-Dimethyl-3-[5-(1H-pyrazol-5-yl)thiophen-2-yl]-6a,7,9,10-tetrahydro-2′H,5H-spiro[1,4-oxazino[4,3-a][1,8]naphthyridine-6,5′-pyrimidine]-2′,4′,6′(1′H,3′H)-trione] has an IC50 of 2 µM.
Compound `C[C@@H]1CN2c3ncc(-c4c[nH]cn4)cc3CC3(C(=O)NC(=O)NC3=O)[C@H]2[C@H](C)O1` (relative stereo) [Example 37, (6aS,7S,9R)-rel-3-(1H-Imidazol-4-yl)-7,9-dimethyl-6a,7,9,10-tetrahydro-2′H,5H-spiro[1,4-oxazino[4,3-a][1,8]naphthyridine-6,5′-pyrimidine]-2′,4′,6′(1′H,3′H)-trione] has an IC50 of 12 µM.
Compound `C[C@@H]1CN2c3ncc(-c4ccccn4)cc3CC3(C(=O)NC(=O)NC3=O)[C@H]2[C@H](C)O1` (relative stereo) [Example 38, (6aS,7S,9R)-rel-7,9-Dimethyl-3-(pyridin-2-yl)-6a,7,9,10-tetrahydro-2′H,5H-spiro[1,4-oxazino[4,3-a][1,8]naphthyridine-6,5′-pyrimidine]-2′,4′,6′(1′H,3′H)-trione] has an IC50 of 12 µM.
`C[C@@H]1CN2c3ncc(-c4nc5ccccc5[nH]4)cc3CC3(C(=O)NC(=O)NC3=O)[C@H]2[C@H](C)O1` (relative stereo) [Example 40, (6aS,7S,9R)-rel-3-(1H-Benzimidazol-2-yl)-7,9-dimethyl-6a,7,9,10-tetrahydro-2′H,5H-spiro[1,4-oxazino[4,3-a][1,8]naphthyridine-6,5′-pyrimidine]-2′,4′,6′(1′H,3′H)-trione] gave an IC50 of 6 µM.
`C[C@@H]1CN2c3ncc(-c4ccc(Cl)cn4)cc3CC3(C(=O)NC(=O)NC3=O)[C@H]2[C@H](C)O1` (relative stereo) [Example 42, (6aS,7S,9R)-rel-3-(5-chloropyridin-2-yl)-7,9-dimethyl-6a,7,9,10-tetrahydro-2′H,5H-spiro[1,4-oxazino[4,3-a][1,8]naphthyridine-6,5′-pyrimidine]-2′,4′,6′(1′H,3′H)-trione] was tested, and the IC50 was 4 µM.
Compound `COc1ccncc1-c1cnc2c(c1)CC1(C(=O)NC(=O)NC1=O)[C@H]1[C@H](C)O[C@H](C)CN21` (relative stereo) [Example 43, (6aS,7S,9R)-rel-3-(4-Methoxypyridin-3-yl)-7,9-dimethyl-6a,7,9,10-tetrahydro-2′H,5H-spiro[1,4-oxazino[4,3-a][1,8]naphthyridine-6,5′-pyrimidine]-2′,4′,6′(1′H,3′H)-trione] has an IC50 of 12 µM.
Work on `C[C@@H]1CN2c3ncc(-c4cncnc4)cc3CC3(C(=O)NC(=O)NC3=O)[C@H]2[C@H](C)O1` (relative stereo) [Example 45, (6aS,7S,9R)-rel-7,9-Dimethyl-3-(pyrimidin-5-yl)-6a,7,9,10-tetrahydro-2′H,5H-spiro[1,4-oxazino[4,3-a][1,8]naphthyridine-6,5′-pyrimidine]-2′,4′,6′(1′H,3′H)-trione] yielded an IC50 of 30 µM.
`C[C@@H]1CN2c3ncc(-c4cccc5cccnc45)cc3CC3(C(=O)NC(=O)NC3=O)[C@H]2[C@H](C)O1` (relative stereo) [Example 47, (6aS,7S,9R)-rel-7,9-Dimethyl-3-(quinolin-8-yl)-6a,7,9,10-tetrahydro-2′H,5H-spiro[1,4-oxazino[4,3-a][1,8]naphthyridine-6,5′-pyrimidine]-2′,4′,6′(1′H,3′H)-trione] was tested, and the IC50 was greater than 83 µM.
`C[C@@H]1CN2c3ncc(-c4ccoc4)cc3CC3(C(=O)NC(=O)NC3=O)[C@H]2[C@H](C)O1` (relative stereo) [Example 48, (6aS,7S,9R)-rel-3-(Furan-3-yl)-7,9-dimethyl-6a,7,9,10-tetrahydro-2′H,5H-spiro[1,4-oxazino[4,3-a][1,8]naphthyridine-6,5′-pyrimidine]-2′,4′,6′(1′H,3′H)-trione] showed an IC50 of 17 µM.
For `Cc1noc(C)c1-c1cnc2c(c1)CC1(C(=O)NC(=O)NC1=O)[C@H]1[C@H](C)O[C@H](C)CN21` (relative stereo) [Example 49, (6aS,7S,9R)-rel-3-(3,5-Dimethylisoxazol-4-yl)-7,9-dimethyl-6a,7,9,10-tetrahydro-2′H,5H-spiro[1,4-oxazino[4,3-a][1,8]naphthyridine-6,5′-pyrimidine]-2′,4′,6′(1′H,3′H)-trione], the IC50 was 30 µM.
`C[C@@H]1CN2c3ncc(-c4ccncc4)cc3CC3(C(=O)NC(=O)NC3=O)[C@H]2[C@H](C)O1` (relative stereo) [Example 50, (6aS,7S,9R)-rel-7,9-Dimethyl-3-(pyridin-4-yl)-6a,7,9,10-tetrahydro-2′H,5H-spiro[1,4-oxazino[4,3-a][1,8]naphthyridine-6,5′-pyrimidine]-2′,4′,6′(1′H,3′H)-trione] showed an IC50 of 8 µM.
Compound `C[C@@H]1CN2c3ncc(-c4cnccn4)cc3CC3(C(=O)NC(=O)NC3=O)[C@H]2[C@H](C)O1` (relative stereo) [Example 52, (6aS,7S,9R)-rel-7,9-Dimethyl-3-(pyrazin-2-yl)-6a,7,9,10-tetrahydro-2′H,5H-spiro[1,4-oxazino[4,3-a][1,8]naphthyridine-6,5′-pyrimidine]-2′,4′,6′(1′H,3′H)-trione] has an IC50 of 5 µM.
In the case of `C[C@@H]1CN2c3cnc(-c4ccccn4)cc3CC3(C(=O)NC(=O)NC3=O)[C@H]2[C@H](C)O1` (relative stereo) [Example 55, (6aS,7S,9R)-rel-7,9-Dimethyl-3-(pyridin-2-yl)-6a,7,9,10-tetrahydro-2′H,5H-spiro[1,4-oxazino[4,3-a][1,7]naphthyridine-6,5′-pyrimidine]-2′,4′,6′(1′H,3′H)-trione], the IC50 is reported as 21 µM.
Compound `C[C@@H]1CN2c3cnc(-c4ccnn4C)cc3CC3(C(=O)NC(=O)NC3=O)[C@H]2[C@H](C)O1` (relative stereo) [Example 57, (6aS,7S,9R)-rel-7,9-dimethyl-3-(1-methyl-1H-pyrazol-5-yl)-6a,7,9,10-tetrahydro-2′H,5H-spiro[1,4-oxazino[4,3-a][1,7]naphthyridine-6,5′-pyrimidine]-2′,4′,6′(1′H,3′H)-trione] has an IC50 of 9 µM.
`C[C@@H]1CN2c3cnc(-c4cn[nH]c4)cc3CC3(C(=O)NC(=O)NC3=O)[C@H]2[C@H](C)O1` (relative stereo) [Example 59, (6aS,7S,9R)-rel-7,9-Dimethyl-3-(1H-pyrazol-4-yl)-6a,7,9,10-tetrahydro-2′H,5H-spiro[1,4-oxazino[4,3-a][1,7]naphthyridine-6,5′-pyrimidine]-2′,4′,6′(1′H,3′H)-trione] gave an IC50 of 50 µM.
For `C[C@@H]1CN2c3cnc(-c4cncnc4)cc3CC3(C(=O)NC(=O)NC3=O)[C@H]2[C@H](C)O1` (relative stereo) [Example 60, (6aS,7S,9R)-rel-7,9-Dimethyl-3-(pyrimidin-5-yl)-6a,7,9,10-tetrahydro-2′H,5H-spiro[1,4-oxazino[4,3-a][1,7]naphthyridine-6,5′-pyrimidine]-2′,4′,6′(1′H,3′H)-trione], the IC50 was 6 µM.
`C[C@@H]1CN2c3cnc(-c4cccc5cccnc45)cc3CC3(C(=O)NC(=O)NC3=O)[C@H]2[C@H](C)O1` (relative stereo) [Example 62, (6aS,7S,9R)-rel-7,9-Dimethyl-3-(quinolin-8-yl)-6a,7,9,10-tetrahydro-2′H,5H-spiro[1,4-oxazino[4,3-a][1,7]naphthyridine-6,5′-pyrimidine]-2′,4′,6′(1′H,3′H)-trione] gave an IC50 of 8 µM.
With `C[C@@H]1CN2c3cnc(-c4ccoc4)cc3CC3(C(=O)NC(=O)NC3=O)[C@H]2[C@H](C)O1` (relative stereo) [Example 63, (6aS,7S,9R)-rel-3-(furan-3-yl)-7,9-dimethyl-6a,7,9,10-tetrahydro-2′H,5H-spiro[1,4-oxazino[4,3-a][1,7]naphthyridine-6,5′-pyrimidine]-2′,4′,6′(1′H,3′H)-trione] the IC50 was 35 µM.

Reference: patent US20110178064A1, “SPIRO CONDENSED […] DERIVATIVES FOR USE AS ANTIBACTERIAL” (A[…]&D, priority 2007, published 2011)
